In experiment [1] the target is XIAP-BIR3 (Homo sapiens, UniProt P98170). The experiment in a line: Biacore SPR solution competition binding assay vs smac7mer peptide, XIAP-BIR3. The note with it: SPR competition with captured smac7mer peptide; 100 nM XIAP-BIR3; 25° C.; read-out: XIAP-BIR3 Binding Biacore (Competitive) EC50. From the text: (§1) The compounds described herein above were profiled using a cellular assay (using Panc3.27 tumor cells) and a binding assay to determine the competition between the compounds of the present invention and smac7mer peptide for XIAP-BIR3 and cIAP1-BIR3 binding groove occupancy.
(§2) The present method includes utility of a Surface plasmon resonance (SPR)-based biosensor (Biacore™, GE Healthcare, Uppsala, Sweden) to examine competition between the compounds of the present invention and smac7mer peptide for XIAP-BIR3 and cIAP1-BIR3 binding groove occupancy.
(§3) Biacore™ utilizes the phenomenon of surface plasmon resonance (SPR) to detect and measure binding interactions. In a typical Biacore experiment, one of the interacting molecules is immobilized on a flexible dextran matrix while the interacting partner is flowed over the derivatized surface. A binding interaction results in an increase in mass on the sensor surface and a corresponding direct change in the refractive index of the medium in the vicinity of the sensor surface. Changes in refractive index or signal are recorded in resonance units (R.U.) Signal changes due to association and dissociation of complexes are monitored in a non-invasive manner, continuously and in real-time, the results of which are reported in the form of a sensorgram.
(§4) Biacore™ T100 (GE Healthcare, Uppsala, Sweden) was used to conduct all experiments reported herein. Sensor surface preparation and interaction analyses were performed at 25° C. Buffer and Biacore reagents were purchased from GE Healthcare. Running buffer containing 10 mM Hepes, pH7.4, 150 mM sodium chloride, 1.25 mM Dithiothreitol, 2% Dimethyl sulfoxide and 0.05% polysorbate 20 was utilized throughout all experiments.
(§5) Biotinylated smac7mer peptide was diluted to 10 nM in running buffer and captured onto a sensor surface pre-derivatized with streptavidin (sensor chip SA) towards peptide surface densities in the range 40-100 R.U. Peptide captured surfaces were blocked with 500 μM PEO2-Biotin (Thermo Scientific).
(§6) Interaction analyses were performed by first equilibrating each compound within a six point seven fold compound dilution series in the range 1 μM to 0.06 nM with either 100 nM XIAP-BIR3 or 6 nM cIAP1-BIR3 for at least one hour during instrument start-up procedures. Protein compound mixtures were then injected over reference and smac7mer peptide surfaces in series for 60 seconds at a flow-rate of 60 μL/min. Surface regeneration was performed at the end of each analysis cycle by a 30 second injection of 10 mM Glycine, pH 2.5, 1M Sodium Chloride, 0.05% polysorbate 20. Additionally, control compound samples and control XIAP-BIR3 or cIAP1-BIR3 samples were prepared and run at regular intervals to monitor surface and assay performance.
(§7) Data analyses were carried out using Biacore™ T100 evaluation software v2.0 to validate assay quality. Binding level report points were plotted versus logarithmic compound concentration values and analyzed in Graphpad prism 5 via non-linear regression using a one-site competition model. EC50 values were generated and used as a measure of inhibitor potency.

Experiment [2] concerns the target cIAP1-BIR3 (Homo sapiens, UniProt Q13490). The experiment in a line: Biacore SPR solution competition binding assay vs smac7mer peptide, cIAP1-BIR3. The following applies: SPR competition with captured smac7mer peptide; 6 nM cIAP1-BIR3; 25° C.; read-out: CIAP-BIR3 Binding Biacore (Competitive) EC50.
Text: as §1, §2, §3, §4, §5, §6, §7

In experiment [3] the test system is Panc3.27 tumor cells. As to the kind of experiment: Cellular assay: Panc3.27 tumor cell proliferation (Cell Titer Glo). The experiment is classed as cell-based. The note with it: Panc3.27 cells, 4000 cells per well, 72 hour growth, CTG readout, percent control growth; read-out: PANC proliferation IC50. How it is done: as §1
Cellular Assay—Treatment of Panc3.27 Tumor Cells with Dimeric IAP Antagonists
On day one adherent Panc3.27 cells are plated into two 96-well, clear, flat bottom plates. All wells in row A contain 90 uL of media. All wells in rows B-G contain a total volume of 90 uL per well and 4000 cells per well for Panc3.27 cell lines. Plates are then incubated overnight for 18 hours at 37° C., 5% CO2.
On day two cells are treated with the compounds of formula M-L-M′. Treatments are done in triplicate. The compounds are first serially diluted in DMSO and then added to media giving a final concentration of 0.2% DMSO when added to cells. Cells are treated with 10 uL of serially diluted compounds of formula M-L-M′ at a final concentration of 1000 nM, 200 nM, 40 nM, 8 nM, 1.6 nM, 0.32 nM, 0.06 nM, 0.013 nM, 0.0026 nM, and one untreated well. Plate two is used as a time zero plate.
To measure cell viability 50 uL of Cell Titer Glo (CTG) solution is added to row A, media only and B, cells and media. CTG is purchased from Promega Corporation catalog number G7573. The solution is prepared according to manufacturer's instructions. CTG measures the amount of ATP released from viable cells that is proportional to the number of cells in each well. After incubating for ten minutes with CTG plates are measured on a luminescent reader at 700 nm wavelength. Read time is approximately one second per well for a 96-well plate.
On day five 50 uL of CTG is added to plate one, rows A-G, incubated for 10 minutes at room temperature and read on a luminescent reader. Raw data is adjusted to account for the time zero plate as well as background noise. Triplicate values are averaged and percent control growth is calculated. Percent control growth is calculated using the following logical test: If well read data point (a) is greater than time zero data point (t=0), then 100*[(a)−(t=0)]/[(72 hour total growth)−(t=0)], OR 100*[(a)−(t=0)]/[(t=0)]. Data is represented by line graph with the concentration of compound on the x axis and percent control growth on the y axis.

Each structure is given as a SMILES string. Where a name gives a salt, the structure may show the parent alone.

Sequence of cIAP1-BIR3 (Q13490 253-363 limits assumed): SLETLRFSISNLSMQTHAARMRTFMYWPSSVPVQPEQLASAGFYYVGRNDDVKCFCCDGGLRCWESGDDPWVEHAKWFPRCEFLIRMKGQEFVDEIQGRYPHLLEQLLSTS
Sequence of XIAP-BIR3 (P98170 241-356 limits assumed): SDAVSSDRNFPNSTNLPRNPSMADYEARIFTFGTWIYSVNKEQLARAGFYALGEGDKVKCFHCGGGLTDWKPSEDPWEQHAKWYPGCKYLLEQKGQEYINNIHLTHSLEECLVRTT

Consider `CN[C@@H](C)C(=O)N[C@H](C(=O)N1CCC[C@H]1c1cncc(-c2ccc(F)c(C(=O)NNC(=O)c3cc(-c4cncc([C@@H]5CCCN5C(=O)[C@@H](NC(=O)[C@H](C)NC)C5CCCCC5)c4)ccc3F)c2)c1)C1CCCCC1` [Example 2N-2], for which the EC50 is 75.2 to 75.5 nM in experiment [1] and 1.27 to 1.36 nM in experiment [2]. Besides, in experiment [3], the IC50 was in the range of 0.0026 to 0.02 nM.
In the case of `CN[C@@H](C)C(=O)N[C@H](C(=O)N1CCC[C@H]1c1cncc(-c2ccc(F)cc2CNC(=O)c2ccc(-c3ccc(C(=O)NCc4cc(F)ccc4-c4cncc([C@@H]5CCCN5C(=O)[C@@H](NC(=O)[C@H](C)NC)C5CCCCC5)c4)cc3)cc2)c1)C1CCCCC1` [Example 3A, N4,N4′-bis(2-(5-((S)-1-(S)-2-cyclohexyl-2-((S)-2-(methylamino)-propanamido)acetyl)pyrrolidin-2-yl)pyridin-3-yl)-5-fluorobenzyl)biphenyl-4,4′-dicarboxamide, trifluoroacetate], the EC50 in experiment [1] was in the range of 126 to 127 nM; in experiment [2], 0.86 to 0.88 nM. Besides, in experiment [3], the IC50 is 0.0026 to 0.0084 nM.

The values are drawn from patent US20130266590A1, “DIMERIC IAP INHIBITORS” (NOVARTIS AG, priority 2010, published 2013).
